From patent US20040248914A1, “Method for the treatment of overactive bladder” (priority 2001, published 2004) come the findings set out here.

Test [1] addresses T1, human NK1 receptors (Homo sapiens, UniProt P25103).
T1 construct: expressed in transfected cells; host or cells: MEL cells (membranes)
Nature of the test: In vitro receptor binding assay, [3H]SP in MEL cell membranes expressing cloned human NK1 receptors. The note with it: for Ki: inhibition of [3H]SP binding to cloned hNK1 receptors in MEL cell membranes, read-out: hNK1 (Ki expressed as -Log Molar) (converted). The method, then: (§1) Preparation of Membranes from MEL Cells Transfected with Cloned Human NK1 or NK2 Receptors:
(§2) The cloning of the human lung NK1 and NK2 receptors was achieved as described by Hopkins, et al., Biochem. Biophys. Res. Commun. 180: 1110-1117 (1991), and Graham, et al., Biochem. Biophys. Res. Commun. 177: 8-16 (199.1). Heterologous expression and scale-up growth of MEL cells transfected with human tachykinin receptors was performed as described for NK2 receptors by Aharony, et al., Mol. Pharmacol. 45: 9-19, 1994.
(§3) Membranes from recombinant MEL cells expressing NK1 or NK2 receptors were prepared as described by Hopkins, et al., (1991). Briefly, cells were homogenized at 4° C. (Brinkman PT-20 Polytron, setting 3, with one 15 sec burst on ice), in a buffer consisting of 50 mM Tris-HCl (pH7.4), 5 mM KCl, 120 mM NaCl, 10 mM EDTA and containing several protease inhibitors (1 mM phenylmethylsulfonylfluoride; 0.1 mg/ml soybean trypsin inhibitor, and 1 mM iodoacetamide). The homogenate was centrifuged at 1200×g for 45 min at 4° C. to remove cell debris. The supernatant was centrifuged at 48,000×g for 45 min at 4° C. The pellet was resuspended with a glass-Teflon motorized homogenizer in 30 volumes of ice-cold 50 mM Tris-HCl (pH 7.4) buffer.
(§4) Ligand binding assays with [^3H]NKA in MEL cells expressing cloned NK2 receptors or (^3H]SP in MEL cells expressing cloned NK1 receptors, were conducted generally as described by Aharony, et al., Mol. Pharmacol. 45: 9-19, 1994, Aharony, et al., Neuropeptides 23: 121-130 (1992) and Aharony, et al., J. Pharmacol. Exp. Ther. 259: 146-155 (1991). In brief, incubations were carried out in assay buffer containing membranes, test compounds, and [^3H] ligand (1.0-1.5 nM). In competition experiments, mixtures (0.315 mL) containing various concentrations of competing agents (agonists, antagonists, or vehicle), were incubated at 25° C. for 30 min., with or without 1 μM unlabeled homogenous ligand (NKA or SP), to define non-specific binding. Reactions were initiated by adding membranes (0.1-0.15 mg protein/final concentration) and were conducted in duplicate. Saturation and kinetic experiments were conducted in triplicate. Separation of receptor-bound and free ligand was accomplished by dilution with 1 mL of wash buffer (20 mM Tris-HCl, pH 7.5) followed immediately by vacuum filtration with a total volume of 10 mL of wash buffer (utilizing a Brandel Cell Harvester MB-48R with Whatman GF/B filters presoaked in 0.1% polyethylenimine).
(§5) The ability of compounds disclosed herein to inhibit the binding of [^3H] ligand is shown by the results disclosed in Table 1.

Test [2] relates to BANK-mediated GP bladder contraction. The test is described as follows: BANK-induced bladder contraction in anesthetized guinea pigs. It is filed as in vivo, guinea pig. The note with it: for Inhibition of BANK-mediated GP bladder contraction (% Inhibition mediated by 52 nmol/kg administered orally): anesthetized female guinea pigs, 52 nmol/kg by gavage 1 hr before BANK, mean ± S.E.M. The method, then:
BANK-Induced Bladder Contraction in Anesthetized Guinea Pigs:
Female guinea pigs (300-450 g) were anesthetized by intramuscular administration of ketamine/xylazine mixture (3/10 mg/kg, respectively). The jugular vein was catheterized and the distal end of the catheter connected to a syringe for administration of compound where appropriate. Subsequently, the bladder was exposed through a midline abdominal incision, the ureters tied with 4-0 silk suture approximately 2 cm above the bladder, and cut above the ligature to allow drainage from the kidneys. Cannula were passed through the proximal urethra and bladder sphincter into the bladder lumen. The bladder was manually emptied, infused with 0.3 mL saline, and the catheter attached to a Gould p23 ID pressure transducer for recording changes in bladder pressure. An equilibration period of approximately 15 min was allowed for stabilization of the animals following surgical preparation. Thiorphan (10 mg/kg iv) was administered 15 minutes before agonist exposure to inhibit neutral endopeptidase 3.4.24.11.
To establish the oral effect of test compounds, animals were administered the test compounds (52 nmol/kg, 5% PEG 400-saline vehicle) by gavage 1 hr before administration of BANK. Changes in bladder contraction occurring in the presence and absence of test compound were recorded as an increase in intravesical bladder pressure on a Grass 7D Polygraph and expressed as the precentage change in response. Duration of action studies were performed following oral administration of test compounds (52 nmol/kg, 5% PEG 400-saline vehicle) at different times prior to administration of BANK. Responses were calculated as the percentage difference between the response to BANK in the presence of test compound compared with sham-treated controls. For all studies, each animal was administered a single dose of test compound. Experimental results were expressed as the mean plus or minus the Standard Error of the Mean (±S.E.M) percentage change from basal level.
The ability of compounds disclosed herein to inhibit bladder contractions induced with BANK is shown by the results disclosed in Table 1.

The target in test [3] is T2, human NK2 receptors (Homo sapiens, UniProt P21452).
T2 construct: expressed in transfected cells; host or cells: MEL cells (membranes)
T2 sequence (P21452 1-398): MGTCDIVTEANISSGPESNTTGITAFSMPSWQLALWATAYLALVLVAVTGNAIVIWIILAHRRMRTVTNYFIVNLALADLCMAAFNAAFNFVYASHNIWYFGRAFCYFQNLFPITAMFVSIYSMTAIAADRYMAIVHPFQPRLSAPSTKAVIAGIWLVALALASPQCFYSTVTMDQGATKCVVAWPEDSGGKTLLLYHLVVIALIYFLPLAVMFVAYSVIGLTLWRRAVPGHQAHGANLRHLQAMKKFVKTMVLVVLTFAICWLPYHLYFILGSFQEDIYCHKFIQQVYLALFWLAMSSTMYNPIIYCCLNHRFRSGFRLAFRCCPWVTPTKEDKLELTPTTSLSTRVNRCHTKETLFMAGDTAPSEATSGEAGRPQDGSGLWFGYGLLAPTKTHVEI
The test is described as follows: In vitro receptor binding assay, [3H]NKA in MEL cell membranes expressing cloned human NK2 receptors. The note with it: inhibition of [3H]NKA binding to cloned hNK2 receptors in MEL cell membranes; read-out: hNK2 (Ki expressed as -Log Molar) (converted). The procedure:
as §1, §2, §3, §4, §5

SMILES strings stand for the structures. Several values for one entry are separate records, joined by “and”; a condition that tells them apart may be missing. Identical values can stand only once.

T1 sequence (P25103 whole entry): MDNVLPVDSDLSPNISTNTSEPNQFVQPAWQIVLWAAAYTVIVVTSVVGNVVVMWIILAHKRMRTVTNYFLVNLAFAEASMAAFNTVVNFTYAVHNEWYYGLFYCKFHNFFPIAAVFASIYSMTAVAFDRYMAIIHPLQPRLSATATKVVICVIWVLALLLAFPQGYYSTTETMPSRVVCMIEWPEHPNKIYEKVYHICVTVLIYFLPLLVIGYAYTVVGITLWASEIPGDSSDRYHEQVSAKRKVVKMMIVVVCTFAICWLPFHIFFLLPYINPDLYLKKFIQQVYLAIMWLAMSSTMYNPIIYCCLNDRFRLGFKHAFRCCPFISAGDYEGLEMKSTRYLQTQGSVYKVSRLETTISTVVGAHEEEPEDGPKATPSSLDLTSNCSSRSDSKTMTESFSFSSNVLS

For the compound `CCN(C[C@@H](CCN1CCC(N2CCCNC2=O)CC1)c1ccc(Cl)c(Cl)c1)C(=O)c1ccccc1` [Example 3, (S)-N-{2-(3,4-Dichloro-phenyl)-4-[4-(2-oxo-tetrahydro-pyrimidin-1-yl)-piperidin-1-yl]-butyl}-N-ethyl-benzamide free base], the Ki in test [1] was 66.1 nM; in test [3], 1.41 nM. Further, in test [2], the “Inhibition of BANK-mediated GP bladder contraction (% Inhibition mediated by 52 nmol/kg administered orally)” value was 64% and 64 ± 6%.
Turning to `CN(C[C@@H](CCN1CCC(N2CCCNC2=S)CC1)c1ccc(Cl)c(Cl)c1)C(=O)c1ccccc1.Cl.Cl` [Example 5, (S)-N-[2-(3,4-Dichlorophenyl)-4-[4-(2-thioxoperhydro-pyrimidin-1-yl)-piperidino]butyl]-N-methylbenzamide dihydrochloride], the figures for the Ki in test [1] and in test [3] were 251 nM and 1.38 nM, respectively. Further, in test [2], the “Inhibition of BANK-mediated GP bladder contraction (% Inhibition mediated by 52 nmol/kg administered orally)” value was −9 ± 39%. For the same compound, the “Effect on bladder contraction induced by BANK (in words)” value in test [2] (guinea pig, BANK-induced bladder contraction) is reported as “increase the bladder contraction induced by BANK”.
Consider `CN(C[C@@H](CCN1CCC(N2CC(C)(C)CNC2=O)CC1)c1ccc(Cl)c(Cl)c1)C(=O)c1ccccc1` [Example 1, (S)-N-[2-(3,4-Dichlorophenyl)-4-[4-(2-oxo-5,5-dimethyl-perhydropyrimidin-1-yl)piperidino]butyl]-N-methylbenzamide], for which the inhibition at 10 µM in test [1] (at 10 μM, [3H]SP binding, cloned hNK1 receptors) was 90%. Moreover, the “Inhibition of BANK-mediated GP bladder contraction (% Inhibition mediated by 52 nmol/kg administered orally)” value in test [2] came out at 27 ± 13%. In addition, the Ki in test [3] is 0.55 nM.
`CN(C[C@@H](CCN1CCC(N2CCCNC2=O)CC1)c1ccc(Cl)c(Cl)c1)C(=O)c1ccc(F)cc1.O=C(O)CC(O)(CC(=O)O)C(=O)O` [Example 4, (S)-N-[2-(3,4-Dichlorophenyl)-4-[4-(2-oxoperhydro-pyrimidin-1-yl)piperidino]butyl]-4-fluoro-N-methylbenzamide citrate]: the Ki in test [1] is 61.7 nM; in test [3], 1.74 nM. The “Inhibition of BANK-mediated GP bladder contraction (% Inhibition mediated by 52 nmol/kg administered orally)” value in test [2] was found to be 55 ± 11%.
Take `CCN1CCCN(C2CCN(CC[C@H](CN(C)C(=O)c3ccccc3)c3ccc(Cl)c(Cl)c3)CC2)C1=O.O=C(O)CC(O)(CC(=O)O)C(=O)O` [Example 2, (S)-N-[2-(3,4-Dichlorophenyl)-4-[4-(3-ethyl-2-oxoperhydro-pyrimidin-1-yl)-piperidino]butyl]-N-methylbenzamide citrate]: the Ki is 112 nM in test [1] and 0.245 nM in test [3]. The “Inhibition of BANK-mediated GP bladder contraction (% Inhibition mediated by 52 nmol/kg administered orally)” value in test [2] came to 26 ± 16%.

For orientation: Ki means the dissociation constant of the complex between target and ligand, obtained from inhibition or displacement. Usually inhibition stands for the percentage by which the read-out fell short of the control.
